Patent EP4800006A1, “NICOTINAMIDE PHOSPHORIBOSYL TRANSFERASE AGONIST AND USE THEREOF” (Nanjing Reju Therapeutics Co. Ltd., priority 2023, dated 2025)
Converted amounts (≈) assume the structure as drawn.

Columns and labels:
Solubility of compounds = format: physicochemical; details: acidic pH conditions
Experimental: The main objective of this example is to investigate the solubility of the compounds in Example 1.
Method: A certain amoun of NPL-00, NPL-000, and NPL-1 were weighed and transferred into centrifuge tubes, respectively. Solvent was added to each tube, and the pH value of the system was adjusted with hydrochloric acid and sodium hydroxide. The mixture was shaken for 30 s every 5 min, and the dissolution state was observed within 30 min. If incomplete dissolution was observed, additional solvent was supplemented, and the above operations were repeated until the compounds were completely dissolved, and the volume of solvent at this moment was recorded. The solubility of less than 0.1 mg/mL was defined as "insoluble."

mouse skin = assay: NAD+ level in mouse skin after topical application; format: in vivo, C57BL/6 mice; details: 3% topical application to the skin, 6 hours, compared to the control group; FIG. 3
Experimental: The main objective of this example is to investigate the effect of the Compound NPL-1 in Example 1 on elevating NAD+ level in mouse skin via topical administration.
Method: Male C57BL/6 mice with 8-9 weeks old were treated with 3% of the Compound NPL-1 via topical application to the skin, and mouse skin samples were collected 6 hours later for NAD+ level detection.

C2C12 cells = assay: Differentiation of C2C12 cells (MYH1 immunostaining); format: cell-based; details: 0.3 µM, 7 days, medium with 2% HBS, vs control group; FIG. 4
Experimental: The main objective of this example is to investigate the promotive effect of the compounds in Example 1 on the differentiation of muscle stem cells.
Method: C2C12 cells were selected and seeded into culture plates. After stabilization for 48 h, the medium was replaced with a medium containing 2% HBS to induce differentiation of the C2C12 cells. Meanwhile, the treatment group was treated with 0.3 µM NPL-1, while the control group was treated with an equivalent volume of the compound solvent. After continuous culture for 7 days, immunohistochemical staining was performed using MYH1 antibody, and the cell nuclei were stained with DAPI. Finally, the two channels were merged to analyze the degree of cell differentiation.

Hacat cells = assay: ROS in UVA-irradiated Hacat cells (DCFH-DA fluorescence), antioxidation; format: cell-based; details: 10 µM, 24 h then UVA, vs model group, FIG. 8
Experimental: The main objective of this example is to investigate the antioxidation effect of the compounds in Example 1.
Method: Hacat cells were selected and seeded into culture plates. After stabilization for 24 h, the NPL-1 group was treated with 10 µM NPL-1, while the control group and model group were treated with an equivalent volume of the compound solvent, respectively. After 24 h of treatment, all groups except the control group were irradiated with UVA for modeling. At 0.5 h after the modeling was completed, the fluorescent probe DCFH-DA was added and incubated for 0.5 h, followed by fluorescence intensity measurement to evaluate the expression level of ROS.

U2OS cells = assay: Protective effect on U2OS cells against FK866-induced cytotoxicity (Cell Titer-Glo viability); format: cell-based; details: Homo sapiens, 10 nM FK866, test compound 10 µM, 72 h, viability relative to control minus that of model group, read-out: Percentage increase in cell viability
Experimental: The main objective of this example is to investigate the protective effects of the compounds in Example 1 against the cytotoxicity resulting from FK866-mediated reduction in NAD+ levels.
Method: U2OS cells were selected and seeded into culture plates. After cell stabilization for 1 day, 10 nM of FK866 was added to all groups except the control group to induce cell death. Meanwhile, the test compounds at a concentration of 10 µM were added to the corresponding drug treatment groups, respectively. An equivalent volume of the compound solvent was added to the control group and the model group, respectively. Following incubation for 72 h, Cell Titer-Glo Luminescent cell viability assay reagent (manufacturer: Promega) was added to each well. After mixing well and incubation for 10 minutes, luminescence was detected using a microplate reader with full-wavelength scanning. The pharmacological efficacy of the compounds, expressed as the percentage increase in cell viability, was calculated by subtracting the percentage of the cell viability in the model group relative to the control group from the percentage of the cell viability in the compound-treated group relative to the control group.

tibialis anterior = assay: CTX-induced muscle injury model (tibialis anterior, HE staining); format: in vivo, C57BL/6 mice; details: 3 mg/kg intraperitoneal once daily, 10 µM CTX into tibialis anterior, vs model group; FIG. 5
Experimental: The main objective of this example is to investigate the protective effect of the compounds in Example 1 in a muscle injury model. Method: Male C57BL/6 mice with 8-9 weeks old in the model group and the NPL-4 group were injected intraperitoneally with the corresponding solvent or compounds, respectively, for 1 consecutive week. Subsequently, 10 µM CTX was injected into the tibialis anterior for modeling. After another 7 days, the tibialis anterior was harvested for HE staining to evaluate the injury status of the tibialis anterior of the mice. The grouping was as follows: • Control group: 8 male C57BL/6 mice with 8-9 weeks old were treated with the same solvent as in the NPL-4 group via intraperitoneal injection once daily. One week later, normal saline was injected into the tibialis anterior for modeling, while intraperitoneal injection was continued. Seven days later, the tibialis anterior was harvested for HE staining. • Model group: 8 male C57BL/6 mice with 8-9 weeks old were treated with the same solvent as in the NPL-4 group via intraperitoneal injection once daily. One week later, 10 µM CTX was injected into the tibialis anterior for modeling, while intraperitoneal injection was continued. […]

HSF cells = assay: p16 mRNA in UVA-irradiated HSF cells (qPCR), anti-aging; format: cell-based; details: 10 µM, 24 h then UVA, mRNA by qPCR, vs model group; FIG. 7
Experimental: The main objective of this example is to investigate the anti-aging effect of the compounds in Example 1.
Method: HSF cells were selected and seeded into culture plates. After stabilization for 24 h, the NPL-4 group was treated with 10 µM NPL-4, while the control group and model group were treated with an equivalent volume of the compound solvent, respectively. After 24 h of treatment, all groups except the control group were irradiated with UVA to induce cell senescence. The cells were then collected and RNA was extracted. The mRNA level of the senescence-associated gene p16 was determined using qPCR.

[1] = system: Transgenic zebrafish with green fluorescent mitochondria; assay: Mitochondrial function in zebrafish, cobalt chloride model; format: in vivo; details: 0.25%, 22 h then cobalt chloride 4 h, vs model group; FIG. 10
Experimental: The main objective of this example is to investigate the effect of the compounds in Example 1 on mitochondrial function.
Method: Transgenic zebrafish with green fluorescent mitochondria were placed in a 6-well plate. The NPL-4 group was treated with NPL-4 at a concentration of 0.25%, while the control group and model group were treated with an equivalent volume of the compound solvent. After treatment in the dark for 22 h, all groups except the control group were treated with cobalt chloride for modeling. Following incubation in the dark for additional 4 h, the fluorescence intensity of the zebrafish was detected.

Wild-type zebrafish = assay: DNA damage repair in zebrafish, hydrogen peroxide model (comet assay); format: in vivo; details: 0.25% for 5 days, DNA olive tail moment, vs model group, FIG. 11
Experimental: The main objective of this example is to investigate the repairing effect of the compounds in Example 1 on DNA damage.
Method: Wild-type zebrafish were placed in a 6-well plate. All groups except the control group were treated with hydrogen peroxide to establish a zebrafish DNA damage model. Meanwhile, the NPL-4 group was treated with 0.25% NPL-4 for 5 days, while the control group and model group were treated with an equivalent volume of the compound solvent. The medium was renewed daily. Subsequently, zebrafish samples were collected and ground to prepare cell suspensions. Electrophoresis was performed using a comet assay kit, and data were collected and analyzed using comet analysis software. The DNA olive tail moment value of zebrafish cells was analyzed to evaluate the degree of DNA damage.

## CC(C)(C)c1cccc(C#N)c1OCC(=O)Nc1ccc(O)cc1 [NPL-000]
Solubility of compounds
  solubility: < 100 µg/mL

## CC(C)(C)c1ccccc1OCC(=O)Nc1ccc(O)cc1 [NPL-00]
Solubility of compounds
  solubility: < 100 µg/mL

## CC(C)(C)c1ncccc1OCC(=O)Nc1ccc(O)cc1 [NPL-1]
Mouse skin
  NAD+ level in the mouse skin: effectively elevated
C2C12 cells
  expression level of MYH1: significantly higher
Hacat cells
  expression level of ROS: markedly decreased
Solubility of compounds
  solubility: 7000 µg/mL (≈ 23.3 mM)

## CC(=O)Nc1ccc(NC(=O)COc2cccnc2C(C)(C)C)cc1 [NPL-4]
U2OS cells
  increase in cell viability over FK866 model group at 10 µM: 128%
Tibialis anterior
  damaged area: significantly smaller
HSF cells
  expression of p16: markedly down-regulated
[1]
  mitochondrial fluorescence intensity: significantly enhanced
Wild-type zebrafish
  DNA damage: significantly ameliorated

## CC(C)(C)c1ncncc1CCC(=O)Nc1ccc(O)cc1 [NPL-51, 3-(4-(tert-butyl)pyrimidin-5-yl)-N-(4-hydroxyphenyl)propionamide]
U2OS cells
  increase in cell viability over FK866 model group at 10 µM: 105%

## CC(=O)Nc1ccc(NC(=O)CCc2nccnc2C(C)(C)C)cc1 [NPL-67, N-(4-acetaminophenyl)-3-(3-(tert-butyl)pyrazin-2-yl)propionamide]
U2OS cells
  increase in cell viability over FK866 model group at 10 µM: 99.3%

## CC(=O)Nc1ccc(NC(=O)COc2nccnc2C(C)(C)C)cc1 [NPL-70, N-(4-acetaminophenyl)-2-((3-(tert-butyl)pyrazin-2-yl)oxy)acetamide]
U2OS cells
  increase in cell viability over FK866 model group at 10 µM: 112%

## CC(C)(C)c1nccnc1OCC(=O)Nc1ccc2[nH]c(=O)oc2c1 [NPL-71, 2-((3-(tert-butyl)pyrazin-2-yl)oxy)-N-(2-oxo-2,3-dihydrobenzo[d]oxazol-6-yl)acetamide]
U2OS cells
  increase in cell viability over FK866 model group at 10 µM: 106%

## CC(C)(C)c1nccnc1CCC(=O)Nc1ccc(O)cc1 [NPL-74, 3-(3-(tert-butyl)pyrazin-2-yl)-N-(4-hydroxyphenyl)propionamide]
U2OS cells
  increase in cell viability over FK866 model group at 10 µM: 98.6%

## CC(C)(C)c1nccnc1CCC(=O)Nc1ccc2[nH]c(=O)oc2c1 [NPL-76, 3-(3-(tert-butyl)pyrazin-2-yl)-N-(2-oxo-2,3-dihydrobenzo[d]oxazol-6-yl)propionamide]
U2OS cells
  increase in cell viability over FK866 model group at 10 µM: 99%

## CC(=O)Nc1ccc(NC(=O)COc2ncncc2C(C)(C)C)cc1 [NPL-79, 2-((5-(tert-butyl)pyrimidin-4-yl)oxy)-N-(4-(acetamido)phenyl)acetamide]
U2OS cells
  increase in cell viability over FK866 model group at 10 µM: 97.9%
